US8017585B2, “CXCR4 antagonist and use thereof” (priority 2002, dated 2011)
Bridge positions count the residues as written; N and C are the ends. Square brackets hold non-standard residues; d marks the D form. Peptide text beside a SMILES is read from it. * marks the point of attachment. 2Nal = N[C@@H](Cc1ccc2ccccc2c1)C(=O)O; Benzoyl(4-F) = O=C(c1ccc(F)cc1)*; Cit = NC(=O)NCCC[C@H](N)C(=O)O

Assays:
SUP-T1 cells = test: Inhibition of CXCL12-induced T-cell derived leukemia cell migration (Transwell); type: cell-based, human; conditions: 10 nM of the antagonist; 30 nM CXCL12; 4 hours
Method: 30 nM of CXCL12 (R&D System Company) and 600 μL/well of buffer-A (0.1% bovine serum albumin, DMEM (GibcoBRL) containing 12 mM HEPES) containing the test compound were added to the lower chamber of Transwell filter (polycarbonate filter, 8 μm diameter, Costar Company). The test compound and human cell-derived leukemia SUP-T1 cells (purchased from American Tissue Culture Collection), and 100 μL/well of buffer A containing 2×10^6 cells/mL were added to the upper chamber. After 4 hours' incubation at 37° C. in 5% CO2 incubator, the number of the cells moved to the lower chamber was counted by Coulter counter. Control (−) indicates the migration when CXCL12 was not added. Control (+) indicates the migration when CXCL12 was added. By adding CXCL12, the migration of SUP-T1 cells was enhanced. This CXCL12-induced migration of SUP-T1 cells was inhibited by 10 nM of the antagonist, 4Fbenzoyl-TN-14003. From the foregoing, 4Fbenzoyl-TN-14003, by inhibiting the movement of T-cells at low concentrations, is considered to be useful as an inhibitory drug for chronic rheumatoid arthritis.

[1] = tested on: mouse DTH reaction induced by SRBC; test: Mouse delayed-type hypersensitivity reaction (DTH) induced by SRBC; type: in vivo, BALB/c mice; conditions: Alzet osmotic pump
Method: Preserved blood of sheep was purchased from Nippon Bio-Supp. Center. The preserved sheep blood was cleansed twice in physiological saline solution, suspended in physiological saline solution, and used as sheep red blood cells (SRBC). As OD541 nm value of oxyhemoglobin at the time of hemolyzation of 1.0×10^9 cells/mL of the SRBC suspension by 14 parts distilled water is considered to be nearly 0.700, SRBC density was accordingly fixed.
2×10^7 cells/50 μl of SRBC were administered subcutaneously to the ankles of the left hindlimbs of BALB/c mice (male, 6 week-old, Charles River Japan, Inc.) and sensitized. After 5 days, 10^8 cells/50 μl of SRBC were administered subcutaneously to the ankles of the right hindlimbs and DTH reaction was induced. Immediately prior to and 24 hours after the induction of antigens, the thickness of the ankles of the right hindlimbs was measured by a digital micrometer (Mitutoyo Corporation CD-15B), and the increase (mm) in the thickness of ankles was adopted as the indicator of DTH reaction.
4Fbenzoyl-TN14003 was dissolved to PBS, and continuously administered using Alzet osmotic pumps (Alza, 0.5 μL/hr, 7 days persistent type). The osmotic pumps were implanted intradermally to the backs under ether anesthesia on the day before the sensitization. As the control, pumps injected with PBS were similarly implanted. 4F-benzoyl-TN14003 was administered at the doses of 4.8, 24 and 120 μg/day.
Data were expressed as mean value±standard margin of error (n=7). By Williams test, p≦0.025 was valued as significant.

[2] = tested on: mouse collagen-induced arthritis; test: Mouse collagen-induced arthritis; type: in vivo, DBA/1JN mouse; conditions: 120 μg/day, Alzet osmotic pump, 2 weeks
Method: FK-506 was purified by a known method (Kino T. et al., J. Antibiot., 1987 40(9): 1249-55). […] For 2 weeks after the additional immunization, body weights and hindlimb thickness were measured and arthritis scoring was made. Arthritis scores were scored at 0-3 points of each limb, and evaluated by the total of the same (12 points being the full points; 0, normal; 1, mild swelling or swelling of a single digit; 2, moderate swelling or swelling of plural digits; 3, severe swelling). Two weeks after the immunization, four limbs and sera were picked. After coat blocking bovine type II collagen (10 μg/mL PBS solution) on the immunoplate, 100 μL of 1000 times diluted mouse serum was added, and kept at room temperature for 2 hours. After cleansing, anti-mouse IgG2a antibody (1000 times dilution) was added. After cleansing, TMB was added, kept at room temperature for 30 minutes, H2SO4 of equal amount was added, and A450 nm was measured. Indomethacin (1 mg/kg), methotrexate (3 mg/kg) and FK-506 (10 mg/kg) were suspended to 0.5% methyl cellulose, and orally administered every day for 2 weeks from the day of the additional immunization at the dose of 0.1 mL/10 g body weight. 0.5% methyl cellulose solution of the equal dose was orally administered to the control group. 4Fbenzoyl-TN14003 was dissolved to PBS, and continuously administered using Alzet osmotic pumps (Alza, 0.5 μL/hr 2 weeks). The osmotic pumps were implanted intradermally to the backs of the mice under ether anesthesia on the day before the additional immunization. As the control, pumps injected with PBS were similarly implanted. Evaluation of each drug was made for the value obtained 2 weeks after the additional immunization. Data were expressed as mean value±standard margin of error (n=8-12). Comparison between 2 groups was made by Student's t-test, p≦0.05 was valued as significant. Multiple comparison was made by Dunnett test, p≦0.05 was valued as significant.

[3] = tested on: Jurkat human T lymphocyte cell lines; conditions: read-out: IC50 value, inhibition of SDF-1α-induced Jurkat cell migration; SDF-1α 1 ng/mL; 4 hours
Method: RPMI-1640 and fetal calf serum (FCS) was purchased from BioWhittaker, penicillin-streptomycin solution, RPMI-1640 (without phenol red) and HEPES from Invitrogen, BSA from Sigma, and, human SDF-1α (CXCL12) from Genzyme. Jurkat human T lymphocyte cell lines were purchased from ATCC and incubated in RPMI-1640 10% FCS.
Using 24-wells Transwell (Costar, polycarbonate membrane, pore size 5 μm), migrating reaction was performed. 600 μL of SDF-1α (final concentration 1 ng/mL) was added to the lower layer of Transwell, 5×10^5 cells (200 μL) was added to the insert, and was reacted at 37° C. for 4 hours. The cells were pre-incubated with drugs at 37° C. for 30 minutes. The migrating reaction was made in RPMI-1640 culture media containing 20 mmol/L HEPES, 0.5% BSA. The cells migrated to the lower layer were recovered, and the number of the cells was counted by Coulter Counter. The inhibitory rate (%) against the migration by the drug of each concentration was calculated by the following formula, and IC50 value was calculated from such inhibitory rate.

In the case of N=C(N)NCCC[C@H](NC(=O)[C@@H]1CSSC[C@H](NC(=O)[C@H](Cc2ccc3ccccc3c2)NC(=O)[C@H](CCCNC(=N)N)NC(=O)[C@H](CCCNC(=N)N)NC(=O)c2ccc(F)cc2)C(=O)N[C@@H](Cc2ccc(O)cc2)C(=O)N[C@@H](CCCNC(N)=O)C(=O)N[C@@H](CCCCN)C(=O)N[C@H](CCCCN)C(=O)N2CCC[C@H]2C(=O)N[C@@H](Cc2ccc(O)cc2)C(=O)N[C@@H](CCCNC(=N)N)C(=O)N[C@@H](CCCNC(N)=O)C(=O)N1)C(N)=O [4F-benzoyl-TN14003, 4F-benzoyl-Arg-Arg-Nal-Cys-Tyr-Cit-Lys-DLys-Pro-Tyr-Arg-Cit-Cys-Arg-NH2] ({Benzoyl(4-F)}-RR[2Nal]CY[Cit]K[dK]PYR[Cit]CR-NH2; disulfide 4-13), the “CXCL12-induced migration of SUP-T1 cells” value (SUP-T1 cells) is reported as “inhibited”, the “inhibitory rate of footpad edema (DTH)” value ([1]; 4.8 μg/day) is reported as 9% and the “inhibitory rate of footpad edema (DTH)” value ([1]; 24 μg/day) is reported as 31%. For the same compound, the “inhibitory rate of footpad edema (DTH)” value ([1]; 120 μg/day) was 51%, the arthritis score [2] was “significant inhibitory activity” and the body weight loss [2] was “significant inhibitory activity”. For the same compound, the hindlimb swelling [2] was “significant inhibitory activity”, the “increase of anti-type II collagen specific IgG2a antibody value” [2] was “inhibitory tendency” and the IC50 [3] was 650 pM.
